Assay results from a melting point compilation (Tetko et al.; mined from patent text by program, amines drawn as free bases though some values may be those of a salt).

| melting point [°C] | SMILES |
| --- | --- |
| 84 to 87 | COC(=O)CCC(=O)c1cc(NC(C)=O)ccc1OCC1CO1 (configuration not stated) |
| 253 to 255 | O=[N+]([O-])c1ccc2nc3c4ccccc4c4ccccc4c3nc2c1 |
| 210 to 211 | CC(=O)N1c2ccccc2Sc2ccccc21 |
| 154 to 156 | CCN(C)C1=NS(=O)(=O)c2cccc(OC)c21 |
| 164 to 166 | CC(C)(C)OC(=O)N1CCc2c(n(CCOc3ccc(F)cc3)c3ccc(Cl)c(Cl)c23)CC1 |
| 120 to 121 | C=Cc1ccc(NC(C)=O)nc1 |
| 196 to 197 | COc1cccc(-c2c(C(=O)O)c(=O)n(C)c3ncccc23)c1 |
| 130 | C=CCN1C(=O)CN(c2ccc(OCc3ccccc3)cc2)C1=S |
| 155 to 157 | CCCN(c1ccc(C(=O)OCC)cc1)c1nc(=O)c2cccnc2s1 |
| 234 to 235 | O=C(NCc1ccc(Cl)cc1)c1cnc2c(F)cc(/C=C\CO)cc2c1O |
| 108 to 120 | COC1(OC)CCCCC1N=O (configuration not stated) |
| 49 to 51 | CCCN(CCC)c1ccc(Cl)nn1 |
| 246 to 250 | COc1c(N2CC(O)C2)c(F)cc2c(=O)c(C(=O)O)cn(C3CC3)c12 |
| 220 to 222 | CC1(C)CC(=O)c2c(SC(C)(C)C)sc(-c3cc[nH]n3)c2C1 |
| 130 | COc1c(C)cc2c(c1C)Cc1c-2[nH]c2ccc(C(C)C)cc12 |
| 209 to 211 | COc1ccc(CNc2cc3c(Nc4ccc(Cl)c(Cl)c4)ncnc3cn2)cc1 |
| 133 | CNC(=O)c1cccc(NC(=O)COc2ccccc2OC)c1 |
| 156 to 158 | COc1ccc2cc(C3CCN(C[C@H](O)COc4cccc5oc(-c6nnc(C)o6)cc45)CC3)ccc2c1 |
| 74 to 76 | CCOC(=O)c1c(C)c[nH]c1C |
| 271 to 275 | Cc1c(-c2ccccc2)n(-c2ccccc2Cl)c(-c2ccccc2)cc1=S |
| 132 to 134 | Cc1cc(CC(=O)O)n(C)c1C(=O)c1ccc2n1CCC2 |
| 48 to 50 | C=C(CCCCCCCCCCCCCCCCCC)C(=O)OC |
| 114 to 116 | COc1ccc(C(=O)C=Cc2ccc(C(C)(C)C)cc2)cc1 |

| melting point [°C] | SMILES |
| --- | --- |
| 187 to 189 | CCOC(=O)CNC(=O)NCc1cccc2c1C(=O)N(C1CCC(=O)NC1=O)C2=O (configuration not stated) |
| 87 to 89 | N#Cc1ccccc1N1CCN(C[C@@H](O)COc2cccc(-c3noc4ccsc34)c2)CC1 |
| 168 to 169 | c1ccc(-c2ccc3sc(-c4nc(COc5ccc(CCCn6ccnc6)cc5)co4)cc3c2)cc1 |
| 178 to 181 | O=C(O)COc1ccc2cc(-c3oc4ccccc4c3C(=O)c3ccccc3)ccc2c1 |
| 300 | O=C(Nc1ccc(Br)c2c1C(=O)c1ccccc1C2=O)c1ccccc1 |
| 119 to 120 | COc1ccc(CCC(=O)Nc2c(C)c(C)c3c(c2C)C(c2ccc(C(C)C)cc2)CO3)cc1 (configuration not stated) |
| 206 to 208 | O=C1c2ccccc2-c2c1c1ccccc1c(=O)n2C1CC1 |
| 123 to 125 | CCC(C)(C)C1CC=C(C(=O)O)CC1 (configuration not stated) |
| 179 | CCOc1ccc2c(c1)n(C1CCCCC1)c(=O)n2S(=O)(=O)c1ccc(C(=O)Nc2ccccc2C)cc1OC |
| 110 to 111 | OCc1ccc2cccc(Br)c2c1 |
| 187 to 188 | Nc1cccc(S(=O)(=O)N2CC=CC2)c1 |
| 96 to 97 | Cc1cccc(N2CCN(CCc3c(C)nc4cc(C)ccn4c3=O)CC2)c1 |
| 132 to 134 | C#CCN1C(=O)COc2cc(F)c(N)cc21 |
| 105 to 107 | COC(=O)c1snc(-c2ccc(Cl)c(Cl)c2)c1C(=O)OC |
| 177 to 179 | CCn1ncc(C(=O)c2ccc(S(C)(=O)=O)c(C3=NOCC3)c2C)c1OCC(=O)c1ccccc1 |
| 83 to 86 | CS(=O)(=O)c1ccc(C(CC2CCCC2)C(=O)Nc2ccc(Br)cn2)cc1Br (configuration not stated) |
| 198 to 199 | O=C(O)c1ccc(OCCOc2ccccc2)cc1 |
| 280 to 282 | Nc1cccc(Nc2ncnc3[nH]cc(C(=O)c4ccccc4)c23)c1 |
| 233 to 235 | O=C1N=C(N2CCOCC2)SC1=Cc1cccc(-c2ccc(O)c(F)c2)c1 |
| 101 to 104 | Cc1ccc2nc([C@@H](C)NC(=O)OC(C)(C)C)sc2c1 |
| 32 to 33 | O=C(F)OC12CC3CC(CC(C3)C1)C2 |
| 109 to 127 | COc1cc2c(cc1Nc1ncc(Cl)c(N[C@H]3[C@@H](C(N)=O)[C@@H]4C=C[C@H]3C4)n1)CCN(CC(=O)N(C)C)CC2 |
| 65 | CCCCCCCCc1ccc(OCC(=O)Cn2ccc3ccccc32)cc1 |

| melting point [°C] | SMILES |
| --- | --- |
| 135 to 140 | Cc1[nH]cnc1CC1CCc2[nH]c3c(F)cccc3c2C1=O (configuration not stated) |
| 158 to 161 | CCCCC1NC(/C=C(\Cc2cccs2)C(=O)O)=CN1Cc1ccc(C(=O)O)c(-c2ccccc2)c1 (configuration not stated) |
| 110 to 111 | COc1cc(C)c(Br)cc1OCc1ccccc1 |
| 61 to 62 | C=CCOc1ccc(CC(=O)O)cc1 |
| 59 to 61 | COc1cccc(CN(C)CC(CCN2CCC(NC(C)=O)(c3ccccc3)CC2)c2ccc(Cl)c(Cl)c2)c1 (configuration not stated) |
| 186 to 187 | Cc1ccc(S(=O)(=O)N2CCCC(S(=O)(=O)c3ccc(Cl)cc3)C2)cc1 (configuration not stated) |
| 51 to 52 | C#CCc1c(F)c(F)c(CO)c(F)c1F |
| 208 to 210 | NC(=O)NN=C1CC(O)C(C=Cc2ccccc2)=C1CCCCCCC(=O)O (configuration not stated) |
| 125 to 130 | CCCCC1(N(C)C)CC=C(c2[nH]c3ccccc3c2CCN2C(=O)c3ccccc3C2=O)CC1 (configuration not stated) |
| 180 to 181 | Cc1ccc(C2c3c(C)c(N4CCN(c5ccc(C(F)(F)F)cc5)CC4)c(C)c(C)c3OC2(C)C)cc1 (configuration not stated) |
| 91 to 93 | COCC(c1cc(C)ccc1C)S(=O)(=O)c1ccccn1 (configuration not stated) |
| 330 to 332 | O=c1cnc2c([N+](=O)[O-])c(Cl)c(Cl)cc2[nH]1 |
| 67 to 69 | O=C(CO)c1ccc(Oc2ccccc2)cc1 |
| 238 to 240 | COc1cc2c(Nc3ccc(Sc4nccn4C)c(Cl)c3)c(C#N)cnc2cc1-c1csc(CN2CCOCC2)c1 |
| 166 to 167 | N#Cc1c(N2CCCCC2)cc(-c2ccc3ccccc3c2)c2c1-c1ccccc1C2=O |
| 51 to 56 | Cc1cc(CCC[C@H](CC(=O)OC(C)(C)C)C(=O)N[C@H](C(=O)O)C(C)(C)C)ccc1-c1ccccc1 |
| 178 to 179 | COc1ccc(CNC(=O)c2ccc(Cl)cc2OCC(=O)O)cc1 |
| 254 to 256 | CN(C)C(=O)N1Cc2c(-c3noc(C4CC4)n3)ncn2-c2ccc(Cl)cc21 |
| 98 to 100 | COC(=O)c1c2cccccc-2c(-c2ccccc2)c1-c1ccc(S(C)(=O)=O)cc1 |
| 97 to 98 | CCCCCCCCCCCCn1nnc(C(C(=O)Nc2c(C(C)C)cccc2C(C)C)N2CCSCC2)n1 (configuration not stated) |
| 103 to 104 | CN1c2cccc3c2N(CCC3)S1(=O)=O |

| SMILES | melting point [°C] |
| --- | --- |
| CN(C)CCc1cn(C(=O)c2ccccc2)c2ccc(O)cc12 | 154 to 156 |
| COc1cc(C(=O)c2c[nH]c(-c3c[nH]c4ccccc34)n2)cc(OC)c1OC | 208 to 210 |
| Cc1cc(C2=NOC(c3cc(Cl)cc(Cl)c3)(C(F)(F)F)C2)ccc1C(=O)NC1CON(C)C1=O (configuration not stated) | 87 |
| c1cc2c(N3CCNCC3)csc2cn1 | 126 to 128 |
| CC(C)(C)N(O)CC(O)c1cc(F)c(N)c(Br)c1 (configuration not stated) | 122 to 125 |
